The target of this test is Mitogen-activated protein kinase 9 (Homo sapiens, UniProt P45984). Nature of the test: Inhibition of His6-tagged JNK2 (unknown origin) assessed as reduction in c-Jun phosphorylation using GST-c-Jun (1 to 79 residues) and [gamma32P]ATP incubated for 1 hr by scintillation counting assay.

Some results are limits rather than exact numbers.

Chain of Mitogen-activated protein kinase 9 (P45984 whole entry, the tested form may be a part): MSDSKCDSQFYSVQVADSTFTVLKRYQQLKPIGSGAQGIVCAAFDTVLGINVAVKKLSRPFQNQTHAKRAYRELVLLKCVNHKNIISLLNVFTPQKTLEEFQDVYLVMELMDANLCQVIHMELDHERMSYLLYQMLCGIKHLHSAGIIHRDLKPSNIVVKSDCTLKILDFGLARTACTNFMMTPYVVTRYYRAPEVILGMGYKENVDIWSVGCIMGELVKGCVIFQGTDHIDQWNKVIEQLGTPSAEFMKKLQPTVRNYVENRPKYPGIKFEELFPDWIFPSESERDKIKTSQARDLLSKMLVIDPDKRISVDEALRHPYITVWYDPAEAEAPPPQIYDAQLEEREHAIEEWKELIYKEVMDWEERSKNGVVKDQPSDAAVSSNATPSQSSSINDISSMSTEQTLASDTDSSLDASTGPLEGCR

By IC50 is commonly meant the concentration at which inhibition is half-maximal. `O=C(NC1CCCC1)c1cccc(-c2n[nH]c3ccc(-c4nc[nH]n4)cc23)c1`: the IC50 fell in the range of 0.5 to 10 µM.

For `NC(=O)c1ccc2[nH]nc(-c3cccc(N)c3)c2c1`, the IC50 lay within 1 to 10 µM. To `O=C(CN1CCOCC1)Nc1cccc(-c2n[nH]c3ccc(-c4nc[nH]n4)cc23)c1` belongs 0.5 to 10 µM; to `O=C(O)c1cccc(C(=O)Nc2ccc3[nH]nc(-c4ccc(F)cc4)c3c2)c1`, 1 to 10 µM. To `c1cc(-c2n[nH]c3ccc(-c4nnn[nH]4)cc23)cs1` belongs 0.5 to 10 µM; to `NCCCNC(=O)c1ccc2[nH]nc(-c3ccc(F)cc3)c2c1`, 1 to 10 µM. The same measure for `NC(=O)c1ccc2[nH]nc(-c3cccc(OCCN4CCCCC4)c3)c2c1`: 1 to 10 µM; for `Fc1ccc(-c2n[nH]c3ccc(-c4nnc(Cc5ccccc5)[nH]4)cc23)cc1`: 1 to 10 µM.

With `O=C(O)CCCNC(=O)c1ccc2[nH]nc(-c3ccc(F)cc3)c2c1`, the IC50 lay in the range of 1 to 10 µM. For the molecule `CNC(=O)c1ccc(C(=O)Nc2ccc3[nH]nc(-c4ccc(F)cc4)c3c2)cc1`, the IC50 was 1 to 10 µM. The same measure for `O=C(Nc1cccc(-c2n[nH]c3ccc(-c4nc[nH]n4)cc23)c1)c1ccc(Cl)cc1`: 1 to 10 µM. To `O=C(NO)c1ccc2[nH]nc(-c3ccc(F)cc3)c2c1` belongs 1 to 10 µM.

For the molecule `CC(=O)N1CCN(CCOc2cccc(-c3n[nH]c4ccc(-c5ncn[nH]5)cc34)c2)CC1`, the IC50 was in the range of 1 to 10 µM. The same measure for `C(#Cc1n[nH]c2ccc(-c3nnn[nH]3)cc12)c1ccccc1`: 1 to 10 µM. To `CNC(=O)c1ccc2[nH]nc(-c3ccc(F)cc3)c2c1` belongs 1 to 10 µM.

On to `c1cc(-c2n[nH]c3ccc(-c4nnn[nH]4)cc23)ccn1`, for which the IC50 is 0.5 to 10 µM.

For the molecule `O=S(=O)(Nc1ccc2[nH]nc(-c3ccc(F)cc3)c2c1)c1ccccc1`, the IC50 is ≤ 10 µM. The same measure for `Fc1ccc(-c2n[nH]c3ccc(-c4nc5ccccc5[nH]4)cc23)cc1`: ≤ 10 µM; for `NC(=O)c1ccc2[nH]nc(C#Cc3ccccc3)c2c1`: 1 to 10 µM. On to `CC(C)(C)OC(=O)NNC(=O)c1ccc2[nH]nc(-c3ccc(F)cc3)c2c1`, for which the IC50 fell in the range of 1 to 10 µM.

Regarding `O=C(Nc1ccc(F)cc1)c1cccc(-c2n[nH]c3ccc(-c4nc[nH]n4)cc23)c1`, the IC50 is 0.5 to 10 µM. Consider `CC(C)c1ccc(-c2n[nH]c3ccc(-c4nnn[nH]4)cc23)cc1`, for which the IC50 is 1 to 10 µM.

As to `O=C(Nc1cccnc1)c1cccc(-c2n[nH]c3ccc(-c4nc[nH]n4)cc23)c1`, the concentration for half-maximal inhibition (IC50) was in the range of 0.5 to 10 µM. Take `O=C(Nc1cccc(-c2n[nH]c3ccc(-c4nc[nH]n4)cc23)c1)C1CC1`: the IC50 lay in the range of 1 to 10 µM. The same measure for `Clc1ccc(/C=C/c2n[nH]c3ccc(-c4nc[nH]n4)cc23)cc1`: 1 to 10 µM; for `COC(=O)c1ccc(NC(=O)c2ccc3[nH]nc(-c4ccc(F)cc4)c3c2)cc1`: ≤ 10 µM. The same measure for `Fc1ccc(-c2n[nH]c3ccc(NCc4ccncc4)cc23)cc1`: 1 to 10 µM; for `O=C(O)CCNC(=O)c1ccc2[nH]nc(-c3ccc(F)cc3)c2c1`: 1 to 10 µM. For `CN(C)CCNC(=O)c1ccc2[nH]nc(-c3cc4ccccc4o3)c2c1`, the IC50 lay within 1 to 10 µM. To `CCOc1cccc(-c2n[nH]c3ccc([N+](=O)[O-])cc23)c1` belongs ≤ 10 µM.

Consider `Nc1ccc(-c2nnc(-c3ccc4[nH]nc(-c5ccc(F)cc5)c4c3)[nH]2)cc1`, for which the half-maximal inhibitory concentration (IC50) was 1 to 10 µM. The same measure for `CC(C)CC(=O)Nc1cccc(-c2n[nH]c3ccc(-c4nc[nH]n4)cc23)c1`: 0.5 to 10 µM. To `NC(=O)c1ccc2[nH]nc(-c3cccc(NC(=O)Cc4ccc(F)cc4)c3)c2c1` belongs 0.5 to 10 µM; to `NC(=O)c1ccc2[nH]nc(-c3cccc(NC(=O)CCc4ccc(F)cc4)c3)c2c1`, 1 to 10 µM; to `COc1ccc(C(=O)Nc2cccc(-c3n[nH]c4ccc(-c5nc[nH]n5)cc34)c2)cc1`, 0.5 to 10 µM.

For `CC(=O)N1CCN(Cc2nnc(-c3ccc4[nH]nc(-c5ccc(F)cc5)c4c3)[nH]2)CC1`, the half-maximal inhibitory concentration (IC50) lay within 1 to 10 µM. To `NC(=O)c1ccc2[nH]nc(-c3cccc(NC(=O)CCN4CCCCC4)c3)c2c1` belongs 1 to 10 µM; to `O=C(Nc1cccc(-c2n[nH]c3ccc(-c4nn[nH]n4)cc23)c1)c1ccco1`, 0.5 to 10 µM; to `CC(C)CC(=O)Nc1cccc(-c2n[nH]c3ccc(-c4n[nH]c(CN(C)C)n4)cc23)c1`, 0.5 to 10 µM. The same measure for `O=C(O)/C=C/c1ccc2[nH]nc(-c3ccc(F)cc3)c2c1`: 1 to 10 µM; for `Fc1ccc(-c2n[nH]c3ccc(NCc4cccnc4)cc23)cc1`: ≤ 10 µM; for `COCCC(=O)Nc1cccc(-c2n[nH]c3ccc(-c4nn[nH]n4)cc23)c1`: 0.5 to 10 µM. `Clc1ccc(-c2n[nH]c3ccc(-c4nnn[nH]4)cc23)cc1`: the IC50 was in the range of 0.5 to 10 µM.

Regarding `CN(C)Cc1nc(-c2ccc3[nH]nc(-c4cccc(C(=O)N[C@@H]5CCc6ccccc65)c4)c3c2)n[nH]1`, the IC50 lay in the range of 0.5 to 10 µM. With `c1nc(-c2ccc3[nH]nc(-c4ccc5c(c4)OCCO5)c3c2)n[nH]1`, the IC50 is 1 to 10 µM. In the case of `Cc1ncc(CC(=O)Nc2cccc(-c3n[nH]c4ccc(C(N)=O)cc34)c2)s1`, the IC50 is 1 to 10 µM. For `CN(C)Cc1n[nH]c(-c2ccc3[nH]nc(-c4cccc(C(=O)NC5CC5)c4)c3c2)n1`, the half-maximal inhibitory concentration (IC50) lay in the range of 0.5 to 10 µM. In the case of `CNCc1nc(-c2ccc3[nH]nc(-c4ccc(F)cc4)c3c2)n[nH]1`, the IC50 fell in the range of 0.5 to 10 µM. The same measure for `CN(C)Cc1nc(-c2ccc3[nH]nc(-c4cccc(C(=O)NC(C)(C)C)c4)c3c2)n[nH]1`: 0.5 to 10 µM; for `c1cc(OCCCN2CCCCC2)cc(-c2n[nH]c3ccc(-c4ncn[nH]4)cc23)c1`: 0.5 to 10 µM; for `NC(=O)c1ccc2[nH]nc(-c3cccc(NC(=O)Cc4ccc(C(F)(F)F)cc4)c3)c2c1`: 1 to 10 µM. To `CS(=O)(=O)Nc1ccc(-c2n[nH]c3ccc(-c4nc[nH]n4)cc23)cc1` belongs 1 to 10 µM.

For `CN(C)Cc1nc(-c2ccc3[nH]nc(-c4cccc(NC(=O)c5cccnc5)c4)c3c2)n[nH]1`, the IC50 was 0.5 to 10 µM.

For the molecule `O=C(NC1CCN(Cc2ccccc2)C1)c1cccc(-c2n[nH]c3ccc(-c4nc[nH]n4)cc23)c1` (stereo not given), the IC50 lay in the range of 0.5 to 10 µM. To `CC(C(=O)Nc1cccc(-c2n[nH]c3ccc(C(N)=O)cc23)c1)c1ccccc1` (stereo not given) belongs 1 to 10 µM.

For `c1cc(OCCN2CCOCC2)cc(-c2n[nH]c3ccc(-c4nnn[nH]4)cc23)c1`, the half-inhibitory concentration (IC50) is 0.5 to 10 µM. The same measure for `COc1ccc(-c2n[nH]c3ccc(C(N)=O)cc23)cc1`: 1 to 10 µM; for `NC(=O)CCNC(=O)c1ccc2[nH]nc(-c3ccc(F)cc3)c2c1`: 1 to 10 µM. To `CC(O)Cc1nnc(-c2ccc3[nH]nc(-c4ccc(F)cc4)c3c2)[nH]1` (stereo in doubt; form 1) belongs 0.5 to 10 µM; to `O=C(c1ccc2[nH]nc(-c3ccc(F)cc3)c2c1)N1CCNCC1`, ≤ 10 µM.

(Values after ChEMBL document CHEMBL3882725, “Indazole derivatives as JNK inhibitors and compositions and methods related thereto” (2002).)
